Measured values reported in patent US7399492B2, “Composition and method for issue repair and regeneration” (priority 2001, dated 2008).

Tests used:
[1] = tested on: Salmonella strain TA102 base substitutive mutation strain; assay type: cell-based; conditions: Positive Control/plate
Experimental: To test mutagenicity of the content of GI Capsules, Ames tests were conducted on four Salmonella strains: TA97a, TA98 frameshift mutation strain, TA100, and TA102 base substitutive mutation strain. Ames (1983) Mutation Research 113:173-215. Five genetic characteristics of these four strains were determined to meet the requirement for the testing. The content of GI Capsules at five concentrations was tested: 5 mg/plate, 2.5 mg/plate, 1.0 mg/plate, 0.5 mg/plate, 0.1 mg/plate. The negative control was PBS. […]

Kunming mice [2] = conditions: positive control 35 mg/kg
Kunming mice [3] = conditions: positive control 35 mg/kg; remark: listed apart in the source
[4] = tested on: Kunming mice constipated by diphenoxylate; test: Laxative effects on mouse models for constipation (diphenoxylate); assay type: in vivo; conditions: Positive control group, diphenoxylate 50 mg/kg alone
Experimental: (§1) The content of GI Capsules was tested for laxative effects, i.e., the effects of the loosening the bowels to relieve constipation, on mouse models for constipation. Healthy Kunming mice were divided randomly into 5 groups, 20 in each group. […] The negative control group consists of 20 mice fed normally and the positive control group 20 mice fed with diphenoxylate at 50 mg/kg BW.
(§2) The test samples were diluted with distilled water into required concentrations and volume of 0.1 ml/10 g BW, and continuously administrated to the mice by oral gavage once a day for 14 days. The mice were fed with normal food during this period. On the last day of administration, mice were kept on fast for 24 hours overnight, but water was given. Then the content of GI Capsules were administered to mice in the three dosage groups by oral gavage. Twenty minutes later, diphenoxylate (50 mg/kg) was administered to all animals except those in the negative control group at the dosage of 0.1 ml/10 g. Ten minutes later, carbon ink (5% carbo activatus, 10% Arabic gum) was administered to all animals by oral gavage at the dosage of […]. All animals in each group were divided into two subgroups, 10 mice in each subgroup. One subgroup in each group was kept for observation of their dejection for 24 hours. The other was killed twenty minutes later and cut open the belly to measure the length of small intestine and the distance between pylorus and the front line of carbon ink to calculate carbon moving rates.

[5] = Body weight of mice in the laxative study; assay type: in vivo, mouse; conditions: Positive control group (diphenoxylate 50 mg/kg BW)
Experimental: as §1, §2

Salmonella strain TA100 = test: Ames test, strain TA100; assay type: cell-based; conditions: Positive Control/plate, 2 ul

**Q.** Which “Ames mutation data TA102 +S9” value ([1]; 12 ug) does the source give for `Nc1ccc2cc3ccccc3cc2c1` [2-AA] here?
**A.** 1411.00

**Q.** Which Aberration rate (Kunming mice [2]) does the source give for `O=P1(N(CCCl)CCCl)NCCCO1` (stereo not shown) [CP, cyclophosphamide] here?
**A.** 20.80 ± 0.98%

**Q.** And the Aberrant sperm (Kunming mice [2]; 10 mice, of 10000 sperm)?
**A.** 2080

**Q.** And the “Micronucleus rate, Female” value (Kunming mice [3]; female mice)?
**A.** 21.2 ± 2.28 ‰

**Q.** And the “Micronucleus PCE, Female” value (Kunming mice [3]; female mice, of 5000 PCE)?
**A.** 106

**Q.** And the “Micronucleus rate, Male” value (Kunming mice [3]; male mice)?
**A.** 20.6 ± 2.41 ‰

**Q.** And the “Micronucleus PCE, Male” value (Kunming mice [3]; male mice, of 5000 PCE)?
**A.** 103

**Q.** With `CCOC(=O)C1(c2ccccc2)CCN(CCC(C#N)(c2ccccc2)c2ccccc2)CC1` [diphenoxylate] as the compound, how does the Carbon moving rate [4] read?
**A.** 33.2 ± 10.5%

**Q.** What about the First dejection time [4] of the same compound?
**A.** 230.6 ± 56.0 min

**Q.** And the “Total amounts of dejection” value ([4]; 24 hours observation)?
**A.** 1.0 ± 0.2 g

**Q.** What about the “Weight Dung grain” value ([4]; 24 hours observation) of the same compound?
**A.** 16.4 ± 3.6 grain

**Q.** What about the “Weight 0th day” value [5] of the same compound?
**A.** 19.5 ± 1.2

**Q.** And the “Weight 7th day” value [5]?
**A.** 25.3 ± 0.9

**Q.** And the “Weight 14th day” value [5]?
**A.** 29.2 ± 1.4

**Q.** For `COS(C)(=O)=O` [MMS], which “Ames mutation data TA102 −S9” value ([1]; 2 ul) is on record?
**A.** 2960.00

**Q.** And the “Ames mutation data TA100 −S9” value (Salmonella strain TA100)?
**A.** 1460.00
